Reference: patent US20190167676A1, “METHODS FOR IMPROVING RESISTANCE TO SKELETAL MUSCLE FATIGUE” (Cytokinetics, Inc., priority 2012, published 2019)

Key:
rat FDB muscle = test: Isometric fatigue protocol in isolated rat FDB muscle; settings: 5 μM
Description: The isometric fatigue protocol was based on published studies (Germinario et al, 2004). Isolated rat FDB muscles were incubated at 4° C. with either 0.1% DMSO Krebs buffer or buffer containing 5 μM Compound A for 30 minutes. The tissues were then transferred to an isometric force transducer at 30° C. with the same concentration of DMSO or Compound A. Muscles were stimulated via field electrodes with supra maximal voltage to tetanus (120 Hz stimulation, 1 ms pulses, 350 ms duration) every minute and the length adjusted to achieve maximal tension development (Lo) which was recorded. The stimulation frequency was adjusted to achieve 50% of maximal force for each tissue: The average stimulation frequency required to achieve FMax 50% (mean +/− sd) for 0.1% DMSO was: 32.4 +/− 3.3 Hz, and for 5 μM Compound A it was 20.5 +/− 4.9 Hz. The muscles were then stimulated every six seconds for 15 minutes with field electrodes (1 ms stimulus, 350 ms trains) which produced a rapid drop in developed force over the course of 900 seconds for both the control fibers and Compound A fibers, with the control group showing a greater and more rapid drop in tension than the Compound A group.

[1] = tested on: rat plantarflexor muscles; test: Rat plantar flexor force and power in situ; assay type: in vivo
Description: Rats were placed under anesthesia using isoflurane and the sciatic nerve of the experimental leg exposed. The rat was then placed on the platform of an Aurora in-situ muscle analysis rig (806C), maintained at body temperature via a circulating water system. The knee was immobilized in a clamp between two sharpened screws and the foot attached securely to the footplate of a force transducer (Aurora Scientific, Ontario, Canada) using laboratory tape. The muscle was stimulated directly via the sciatic nerve. For isolation of the nerve, a 1 cm incision was made at the upper thigh and the overlying muscle was dissected to expose an approximate 5 mm stretch of the sciatic nerve. This was then dissected free of surrounding connective tissue and a pair of stainless steel needle electrodes (0.10 mm) were hooked around the exposed nerve. The peroneal branch was severed to remove innervation to the plantar-extensor muscle groups. Muscle contractile properties were assessed by applying an electrical current to the nerve and recording the force generated by the muscle via a servomotor. Isokinetic contractile properties were assessed as force generated during a pre-programmed movement of the footplate. Footplate movements were 0.7 radians in size ([…]).
Solutions of Compound A (50% PEG300/10% EtOH/40% cavitron formulation) were administered via a femoral vein catheter as a single slow bolus over a 2 min period, with a maximal dosage volume of 5 ml/Kg. During the experiment, blood was drawn via the tail vein for compound concentration analysis. At the end of each assay, the length and weight of the muscle was recorded, and measured force normalized to the mass of the muscle (N/g).
Compound A increased force generation throughout the curve to generate a total of 55% more work over the 300 second period, while maintaining a similar profile to that of the vehicle.
The same protocol was repeated with a second skeletal muscle troponin activator, 1-((1R)-1-methylpropyl)-6-chloro-7-pyrazolylimidazo[4,5-b]pyridin-2-ol (Compound B). Compound B and analogous skeletal muscle troponin activators are disclosed in U.S. Pat. No. 7,989,469. […] 0.7 radian displacement and stimulation frequency calculated to provide 50% of maximum isokinetic tension. Compound B maintained force generation throughout the curve, at almost 50% of vehicle stimulation frequency, to generate the same total work over the 300 second period, while maintaining a similar profile to that of the vehicle.

healthy rats [2] = test: Rotarod running assay; assay type: in vivo, rat; settings: for Run time (s) mean ± SEM: 30 minutes prior
Description: Female Sprague Dawley rats (210-260 g) were obtained from Charles River Laboratories and acclimated in the test facility for a minimum of six days prior to the start of the study. All rats were trained the day prior to compound administration. Training consisted of placing the rats on the rotating drum (rod), starting at a low constant speed (10 RPM). The rats were acclimated to walk on the drum for 5 minutes before resting. A second training session of an increasing speed from 14-16 RPM was initiated after all rats in the experimental group had finished the first training session. […] On the day of the experiment animals were dosed thirty minutes prior to start of test. The test began with a 5 minute primer session, whereby animals were run at an increasing speed from 14-16 RPM over 5 minutes. Rats were then run at a constantly accelerating rate from 12 RPM to 25 RPM over the course of 10 minutes. […] Time to fall was recorded, with the test being terminated at 900 seconds. Compound A was administered via oral gavage 30 minutes prior to assessment. Each dose was formulated as a suspension containing 0.2% Tween 80, 0.5% HPMC and water. Dose volume was 5 mL/kg. Vehicle (0.2% Tween 80, 0.5% HPMC and water) was administered similarly. Control treatments were chosen based on association with amelioration of central fatigue (caffeine, Davis 2003), muscular fatigue (creatine, Boyadjiev, 2007) and dual central/muscular fatigue (phosphoserine, […] 1976).

healthy rats [3] = test: Fatigue-rotarod running time test; assay type: in vivo, rat; settings: between 0.3 mg/kg and 100 mg/kg, FIG. 16
Description: The effect of the fast skeletal muscle troponin activator 1-(2-(((trans)-3-fluoro-1-(3-fluoropyridin-2-yl)cyclobutyl)methylamino)pyrimidin-5-yl)-1H-pyrrole-3-carboxamide (Compound C) on muscle fatigue in healthy rats was determined by a rotarod running time test. Compound C was administered to test rats at the doses between 0.3 mg/kg and 100 mg/kg (˜70 nM-28 μM). On the day of the assessment, the animals began by running at an increasing speed from 14-16 RPM over 5 minutes. Rats were then run at a constantly accelerating rate from 12 RPM to 25 RPM over the course of 10 minutes. Time to fall was recorded, with the test being terminated at 600 seconds. The plasma levels were determined at the end of the experiments (not at Cmax). The plasma levels for the indicated doses were determined to be the following: […]

fast skeletal troponin = fast skeletal troponin (Homo sapiens, UniProt P02585); settings: isothermal titration calorimetry; cited from earlier work
Chain of fast skeletal troponin (P02585 whole entry): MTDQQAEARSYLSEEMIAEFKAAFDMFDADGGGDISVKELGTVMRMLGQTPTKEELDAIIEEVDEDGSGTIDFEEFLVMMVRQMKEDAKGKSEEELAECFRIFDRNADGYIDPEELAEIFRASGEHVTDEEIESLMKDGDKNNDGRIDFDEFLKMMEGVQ
Chain of fast skeletal troponin (P48788 whole entry partner): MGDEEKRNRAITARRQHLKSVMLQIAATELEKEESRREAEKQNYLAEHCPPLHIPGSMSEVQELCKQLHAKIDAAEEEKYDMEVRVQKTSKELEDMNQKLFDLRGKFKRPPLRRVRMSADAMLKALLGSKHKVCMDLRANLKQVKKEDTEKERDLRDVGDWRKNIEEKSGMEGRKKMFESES
Chain of fast skeletal troponin (P45378 whole entry partner): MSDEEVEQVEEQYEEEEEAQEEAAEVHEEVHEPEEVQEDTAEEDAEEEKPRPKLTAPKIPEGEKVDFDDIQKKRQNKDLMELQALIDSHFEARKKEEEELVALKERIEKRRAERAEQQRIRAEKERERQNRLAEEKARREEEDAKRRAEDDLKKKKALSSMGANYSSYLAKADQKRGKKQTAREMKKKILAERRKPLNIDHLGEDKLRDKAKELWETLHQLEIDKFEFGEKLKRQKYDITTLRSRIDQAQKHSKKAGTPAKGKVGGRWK

[4] = molecular target: T1, myofibrils from cardiac muscle (Homo sapiens, UniProt P63316); settings: cited from earlier work
T1 construct: from tissue; host or cells: cardiac muscle myofibrils

[5] = stimulated every six seconds for 15 minutes

## C#Cc1cnc2nc(O)n(C(CC)CC)c2n1 [Compound A, 6-ethynyl-1-(pentan-3-yl)-1H-imidazo[4,5-b]pyrazin-2-ol]
Rat FDB muscle
  average stimulation frequency required to achieve FMax 50% (mean +/- sd): 20.5 +/− 4.9 Hz
Rat FDB muscle; [5]
  force at 900 seconds, % of fMax: 28.4±1.2 % f Max
  force at 900 seconds, % of initial tension: 53.9±2.1 % of initial tension
[1]; at 3.1 radians/s
  isokinetic force frequency relationship: increased in the submaximal range in a dose dependent manner
[1]; at 30 Hz
  force-velocity relationship: increased across all velocities in a dose and velocity dependent manner
[1]; corresponding to force velocities at 30 Hz
  power output: dose dependent increase
[1]; in situ
  isometric force frequency relationship: increased in the submaximal range in a dose dependent manner
[1]; isokinetic fatigue protocol, 1 flexion per second at 3.1 radians/s, 30 Hz, vs vehicle
  more total work over the 300 second period: 55%
Healthy rats [2]; 0.3 mg/kg oral gavage
  Run time (s) mean ± SEM: 301 ± 36 s
Healthy rats [2]; 1 mg/kg oral gavage
  Run time (s) mean ± SEM: 334 ± 29 s
Healthy rats [2]; 3 mg/kg oral gavage
  Run time (s) mean ± SEM: 389 ± 65 s
Healthy rats [2]; 3 mg/kg, maximum dose tested
  change of running time: more than a doubling of running time
Healthy rats [3]
  running time vs vehicle controls: significant increases
Fast skeletal troponin
  Kd: 40 nM
[4]
  effect in myofibrils: little or no effect
